“Also recorded” adds a separate entry of the source.
Key:
Aβ42 = molecular target: T1, Aβ42 (Homo sapiens, UniProt P05067); test: Plasma Aβ42 level; format: in vivo, mouse; settings: TgCRND8 mice; 28 days of therapy at five months of age; untreated 1144±76 pg/ml
T1 construct: analyzed for Aβ40 and Aβ42 using commercially available kits; from tissue; host or cells: hemi-brain homogenates and plasma of TgCRND8 transgenic mice
Experimental: Plasma and Cerebral Aβ Content. Hemi-brain samples were homogenized in a buffered sucrose solution, followed by either 0.4% diethylamine/100 mM NaCl for soluble Aβ levels or cold formic acid for the isolation of total Aβ. After neutralization, the samples were diluted and analyzed for Aβ40 and Aβ42 using commercially available kits (BIOSOURCE International). Each hemisphere was analyzed in triplicate and the mean values±SEM reported. Western blot analyses were performed on all fractions using urea gels for Aβ species analyses. Aβ was detected using 6E10 (BIOSOURCE International) and Enhanced Chemiluminenscence (Amersham).
Plasma and cerebral Aβ content. Hemi-brain samples were homogenized in a buffered sucrose solution, followed by either a mixture of 0.4% diethylamine and 100 mM NaCl for soluble Aβ levels or cold formic acid for the isolation of total Aβ. After neutralization, samples were diluted and analyzed for Aβ40 and Aβ42 using commercially available kits (Biosource International). Each hemisphere was analyzed in triplicate and the mean±s.e.m. was reported. Western blot analyses were carried out on all fractions using urea gels for Aβ species analyses. Aβ was detected using 6E10 (Biosource International).

TgCRND8 mice [1] = test: Open field test for motor activity; format: in vivo, mouse; settings: treated TgCRND8 mice vs untreated TgCRND8 and non-Tg littermates
Experimental: (§1) Behavioural tests: Morris Water Maze testing was performed as previously described. After non-spatial pre-training, mice underwent place discrimination training for 5 days with 4-trials per day, followed by a cued visible platform to rule out general motivational, learning deficits and motor problems, and a probe trial to evaluate memory. […] Open field test for motor activity was preformed as described previously. Duration of walking, pausing and grooming were analyzed as indices of spontaneous locomotor activity. Sensorimotor function was examined with an Economex™ accelerating rotarod (Columbus Instruments, Columbus, Ohio), as described elsewhere. The rod was set to accelerate at a rate of 0.2 r.p.m./s, from an initial, constant speed of 5 r.p.m. Latency to fall was recorded in four daily trials, conducted at 30 min intervals. All mice were trained for seven days before testing. The test day performance score for each animal was obtained by summing its latency to fall over the four trials
Behavioral tests. Morris water maze testing was carried out as previously described. After nonspatial pretraining, mice underwent place discrimination training for 5 d with four trials per day, followed by a cued visible platform trial and a probe trial. An open-field test for motor activity was carried out as described previously. Sensorimotor function was assessed with an Economex accelerating rotarod (Columbus Instruments) as previously described.
Behavioural tests. Morris Water Maze testing was performed as previously described. After non-spatial pre-training, mice underwent place discrimination training for 5 days with 4-trials per day, followed by a cued visible platform to rule out general motivational, learning deficits and motor problems, and a probe trial to evaluate memory. The probe trial was conducted at 72 h after the last testing, and used an annulus-crossing index to assess spatial recall. […]
(§2) Duration of walking, pausing and grooming were analyzed as indices of spontaneous locomotor activity. […] Latency to fall was recorded in four daily trials, conducted at 30 min intervals. […]

TgCRND8 mice [2] = test: Accelerating rotarod, sensorimotor function; format: in vivo, mouse; settings: treated vs untreated TgCRND8 mice and non-Tg littermates
Experimental: as §1
Behavioral tests. Morris water maze testing was carried out as previously described. […] Sensorimotor function was assessed with an Economex accelerating rotarod (Columbus Instruments) as previously described.
as §2

β-secretase = molecular target: T2, β-secretase (Homo sapiens, UniProt P56817); test: In vitro β-secretase activity assay; format: cell-based
T2 construct: endogenous in cells
T2 sequence (P56817 46-501): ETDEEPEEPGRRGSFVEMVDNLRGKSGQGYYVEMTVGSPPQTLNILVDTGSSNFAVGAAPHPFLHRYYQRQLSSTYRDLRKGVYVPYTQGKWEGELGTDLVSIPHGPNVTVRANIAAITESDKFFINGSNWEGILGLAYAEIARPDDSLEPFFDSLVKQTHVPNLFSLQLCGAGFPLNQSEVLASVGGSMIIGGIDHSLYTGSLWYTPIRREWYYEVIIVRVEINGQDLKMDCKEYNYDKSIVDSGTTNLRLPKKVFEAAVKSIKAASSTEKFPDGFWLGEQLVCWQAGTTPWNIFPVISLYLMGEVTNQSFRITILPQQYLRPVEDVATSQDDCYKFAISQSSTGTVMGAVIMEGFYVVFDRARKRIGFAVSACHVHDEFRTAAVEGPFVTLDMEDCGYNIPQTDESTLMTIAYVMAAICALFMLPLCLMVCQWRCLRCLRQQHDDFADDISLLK

T1 sequence (P05067 672-713 limits assumed): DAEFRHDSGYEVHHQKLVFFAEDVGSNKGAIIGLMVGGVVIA

Structure (SMILES)	Plasma Aβ42 levels (Aβ42) [pg/mL]	open field: grooming, pausing, walking / activity levels (TgCRND8 mice [1])	open field: grooming, pausing, walking / activity levels (TgCRND8 mice [1]; listed as AZD-103)	open field: grooming, pausing, walking / activity levels (TgCRND8 mice [1]; listed as Scyllo-cyclohexanehexol)	rotarod sensorimotor function (TgCRND8 mice [2])	β-secretase enzyme activity (β-secretase)
OC1C(O)C(O)C(O)C(O)C1O (stereo not drawn) [epi-cyclohexanehexol, 1,2,3,4,5/6-(epi-) cyclohexanehexol, reference compound]	1079 ± 79	–	–	–	–	–
OC1C(O)C(O)C(O)C(O)C1O (stereo not drawn) [scyllo-cyclohexanehexol, 1,3,5/2,4,6-(scyllo-) cyclohexanehexol]	–	indistinguishable; also recorded: does not affect activity levels	does not affect activity levels	no effect on grooming or activity	no difference; also recorded: indistinguishable	no effect
